Results: article PMC6387620 (Nature microbiology, 2018)

Tested on: E. coli BW25113
Type: cell-based, Escherichia coli
Settings: n=3

With Polymyxin B the “Increase in Polymyxin B resistance” value was “five”.
